The data set can be described thus: Toxicity evaluation, plasma AST and ALT after subcutaneous injection. It is filed as in vivo, C57BL/6 mouse. Conditions: 25 μg resiquimod, over time, FIG. 6. The method, then: To evaluate the toxicity of a live pathogen-mimetic nano-molecule, a live pathogen-mimetic nano-molecule, a CWS-nanodispersion, resiquimod (R848; free drug), or a mixture of a CWS-nanodispersion and resiquimod (R848; free drug), which was added to a 50 μL of phosphate buffered saline (PBS) to have a resiquimod concentration of 25 μg, was subcutaneously injected into the right flank of a C57BL/6 mouse. Then, blood was extracted from the mouse at fixed time intervals and centrifuged at 12,000 rpm to isolate plasma. Then, the concentrations of aspartate transaminase (AST) and alanine transaminase (ALT) contained in the isolated plasma were measured using ELISA.

The structures appear in SMILES notation.

In the case of `CCOCc1nc2c(N)nc3ccccc3c2n1CC(C)(C)O` [resiquimod], the “plasma ALT concentration (hepatotoxicity indicator)” value is “initially increased” and the “plasma AST concentration (hepatotoxicity indicator)” value is on record as “initially increased”.

Values taken from patent publication US20230100429A1, “LIVE-PATHOGEN-MIMETIC NANOPARTICLES BASED ON PATHOGEN CELL WALL SKELETON, AND PRODUCTION METHOD THEREOF” (priority 2020, published 2023).
